Laboratory results reported in patent US7026344B2, “Treating sickle cell disease” (priority 2000, dated 2006).
Where “and” joins values, the source holds several entries; their conditions need not be identical. Equal entries are not always repeated.

Columns and labels:
[1] = test system: primary erythroid progenitors (BFU-E colonies) from Hb SS patients; assay: BFU-E colony growth in methylcellulose culture, Hb SS patients; type: cell-based, human; settings: for fold decrease in BFU-E colony number: 0 versus 100 μM, Hb SS patients; for BFU-E Difference: 0 vs 100 μM, sickle cell patients
Protocol: BFU-E Colony Growth. Mononuclear cells were isolated from the peripheral blood of each patient studied by density gradient centrifugation using Histapaque-1077 (Sigma). Erythroid progenitors were obtained in methylcellulose culture. ZL was added on day 0 at 25, 50, 75, or 100 μM concentrations for 13–14 days at which time the number of BFU-E colonies were counted on an inverted microscope and harvested for hemoglobin determinations.
The capability of ZL to induce hemoglobin F in primary erythroid progenitors, grown from peripheral blood mononuclear cells (MNC) was analyzed. BFU-E colonies were grown in methylcellulose cultures supplemented with erthyopoietin and interleukin-3 and ZL at concentration from 0 to 100 μM. Three patients homozygous for hemoglobin S (Hb SS) were analyzed with triplicate experiments. The average BFU-E colony number was 123.2±18.6 without ZL compared to 10.6±2.0 at 100 μM concentrations, p<0.05 (Table 1). […] All pair-wise comparisons for BFU-E and hemoglobin F between 0μ and other concentrations (25, 50, 75 and 100 μM) were significant at p<0.05. The correlation coefficient between the number of BFU-E colonies or percent hemoglobin F and different levels of ZL is −0.90 and +0.79, respectively (p<0.05). […] (See Yang et al., BFU-E colony growth in response to hydroxyurea: correlation between in vitro and in vivo fetal hemoglobin induction. Am J Hematol. 1997; 56:252–258). […] HU either was more efficient in inhibiting BFU-E colony growth or alternatively the baseline number of colonies on an average was higher for the Hb SS patients in the HU cohort.

[2] = test system: human γ (Huγ) mRNA in K562 cells; assay: γ globin mRNA induction in K562 cells by RNase protection assay; type: cell-based; settings: K562, 48 hours, normalized to GAPD vs untreated
Protocol: Cell Culture. K562 cells were grown in suspension cultures in RPMI-1640 containing 10% fetal bovine serum, penicillin (100 U/ml) and streptomycin (0.1 mg/ml in a humidified incubator at 37° C. in a 5%CO2/95% air atmosphere. The following experimental conditions were analyzed in triplicate with 2×10^6 cells per well: an untreated control, ZL dissolved in 0.1% dimethylsulfoximide (DMSO) at final concentrations of […], HU at […] and two positive controls hemin (50 mM) and sodium butyrate (NB) 2 mM. The K562 cells were induced for 72 hours then RNA isolated for further analysis. Cell viability was completed by 2% trypan blue exclusion at timnes 0 and 72 hours.
RNA Isolation. RNA was isolated using RNA Stat-60 (TEL-TEST “B”, Inc., Friendswood, Tex.) according to the manufacturer's instructions. In brief, cell pellets will be suspended in RNA Stat-60 (1 ml) and chloroform (200 μl), and the RNA extracted and precipitated with isopropanol.
RNase Protection Analysis. MRNA levels will be quantitated by RNase protection assay (RPA) with probes designed to yield protected fragments for human γ (Huγ)and the internal control glyceraldehydes-3-phosphate dehydrogenase (GAPD). Huγ mRNA levels were normalized to that of GAPD and compared to the untreated K562 cells. (Zar: Statistical Analysis, Englewood)
Several pharmacological hemoglobin F inducers such as HU, 5-azacytidine, erythropoietin, didox, and butyrate alter γ gene expression in culture. The induction of γ gene activity in culture is a good indicator of potential clinical usefulness. Therefore the capability of ZL to induce γ gene activity at the mRNA level was tested. K562 cells were cultured in ZL from 0 to 100 μM or HU (50μ to 100 μM) for 48 hours. Total cellular RNA was analyzed by RPA for γ mRNA levels. An increase in γ mRNA for ZL at 20 μM with a maximal response at 75 μM (FIG. 4A) was observed. The level of γ gene mRNA synthesis was quantitated relative to the internal control, CAPD. […] K562 cell viability was decreased 10% when measured using trypan blue exclusion at 75 μM and 100 μM concentrations for both ZL and HU. The level of γ gene induction was 3.9 fold and 10-fold for the positive controls NB and hemin, respectively.

Structure (SMILES): CC(c1cc2ccccc2s1)N(O)C(N)=O (racemic) [ZL, (±)-1-(1-Benzo[b]thien-2-ylethyl)-1-hydroxyurea]
- fold decrease in BFU-E colony number [1]: 11.7 fold
- BFU-E Difference [1]: 112.6 ± 19.1
- BFU-E ([1]; zileuton 25 μM, individual Hb SS patients (No. 1-3), colony number, 13–14 days): 137 and 61 and 91
- BFU-E ([1]; zileuton 25 μM, mean ± SEM of three Hb SS patients): 96.4 ± 11.1
- BFU-E ([1]; zileuton 50 μM, individual Hb SS patients (No. 1-3), colony number): 62 and 47 and 72
- BFU-E ([1]; zileuton 50 μM, mean ± SEM of three Hb SS patients): 60.4 ± 4.3
- BFU-E ([1]; zileuton 75 μM, individual Hb SS patients (No. 1-3), colony number): 23 and 27 and 43
- BFU-E ([1]; zileuton 75 μM, mean ± SEM of three Hb SS patients): 31.1 ± 3.2
- BFU-E ([1]; zileuton 100 μM, individual Hb SS patients (No. 1-3), colony number): 13 and 12 and 7
- BFU-E ([1]; zileuton 100 μM, mean of three Hb SS patients): 10.6±2.0 and 10.5
- BFU-E ([1]; zileuton 100 μM, mean of three Hb SS patients, listed as zileuton): 10.5 ± 1.3
- fold increase in γ mRNA ([2]; ZL 20 μM): 2.6 fold
- fold increase in γ mRNA (maximal) ([2]; ZL 75 μM): 4.1 fold

Structure (SMILES): NC(=O)NO [HU, Hydroxyurea]
- fold decrease in BFU-E colony number [1]: 21.3 fold
- BFU-E Difference [1]: 146.4 ± 9.1
- fold increase in γ mRNA ([2]; HU 100 μM): 2.7 fold
